# Test results taken from ChEMBL document CHEMBL5053536, “Discovery of Quinazoline-2,4(1H,3H)-dione Derivatives Containing 3-Substituted Piperizines as Potent PARP-1/2 Inhibitors─Design, Synthesis, In Vivo Antitumor Activity, and X-ray Crystal Structure Analysis” (J Med Chem, 2021).
# The source made the active and inactive calls. The rule behind the calls is not given here.
# Tests used:
# [1] = AUC(0 to infinity) in Beagle dog at 20 mg/kg, po measured upto 24 hrs by LC-MS/MS analysis; type: ADME, organism-based, Canis lupus familiaris; set-up: dose 20 mg/kg, time < 24 hrs, route po; conditions: in vivo
# [2] = Half life in Beagle dog at 20 mg/kg, po measured upto 24 hrs by LC-MS/MS analysis; type: ADME, organism-based, Canis lupus familiaris; conditions: in vivo
# U-87 MG [3] = test: Antitumor activity against human U-87MG cells xenografted in BALB/c mouse assessed as reduction in tumor volume at 25 mg/kg, po administered once daily for 5 days and measured on day 32 in presence of 30 mg/kg TMZ by MRI scanner; type: functional, U-87MG ATCC; conditions: time 32 day
# [4] = MRT(0 to t) in Sprague-Dawley rat at 20 mg/kg, po measured upto 24 hrs by LC-MS/MS analysis; type: ADME, organism-based; conditions: in vivo
# [5] = Half life in Sprague-Dawley rat at 20 mg/kg, po measured upto 24 hrs by LC-MS/MS analysis; type: ADME, organism-based; conditions: in vivo
# U-87 MG [6] = test: Antitumor activity against human U-87MG cells xenografted in BALB/c mouse assessed as tumor growth inhibition at 50 mg/kg, po administered once daily for 5 days and measured upto 32 days in presence of 30 mg/kg TMZ by MRI scanner; type: functional, U-87MG ATCC; conditions: 768 h, time <= 32 day, read-out: TGI
# [7] = target: Poly [ADP-ribose] polymerase 1 (Homo sapiens, UniProt P09874); test: Inhibition of recombinant human PARP1 using NAD+ as substrate incubated for 1 hr by ELISA
# Chain of Poly [ADP-ribose] polymerase 1 (P09874 whole entry): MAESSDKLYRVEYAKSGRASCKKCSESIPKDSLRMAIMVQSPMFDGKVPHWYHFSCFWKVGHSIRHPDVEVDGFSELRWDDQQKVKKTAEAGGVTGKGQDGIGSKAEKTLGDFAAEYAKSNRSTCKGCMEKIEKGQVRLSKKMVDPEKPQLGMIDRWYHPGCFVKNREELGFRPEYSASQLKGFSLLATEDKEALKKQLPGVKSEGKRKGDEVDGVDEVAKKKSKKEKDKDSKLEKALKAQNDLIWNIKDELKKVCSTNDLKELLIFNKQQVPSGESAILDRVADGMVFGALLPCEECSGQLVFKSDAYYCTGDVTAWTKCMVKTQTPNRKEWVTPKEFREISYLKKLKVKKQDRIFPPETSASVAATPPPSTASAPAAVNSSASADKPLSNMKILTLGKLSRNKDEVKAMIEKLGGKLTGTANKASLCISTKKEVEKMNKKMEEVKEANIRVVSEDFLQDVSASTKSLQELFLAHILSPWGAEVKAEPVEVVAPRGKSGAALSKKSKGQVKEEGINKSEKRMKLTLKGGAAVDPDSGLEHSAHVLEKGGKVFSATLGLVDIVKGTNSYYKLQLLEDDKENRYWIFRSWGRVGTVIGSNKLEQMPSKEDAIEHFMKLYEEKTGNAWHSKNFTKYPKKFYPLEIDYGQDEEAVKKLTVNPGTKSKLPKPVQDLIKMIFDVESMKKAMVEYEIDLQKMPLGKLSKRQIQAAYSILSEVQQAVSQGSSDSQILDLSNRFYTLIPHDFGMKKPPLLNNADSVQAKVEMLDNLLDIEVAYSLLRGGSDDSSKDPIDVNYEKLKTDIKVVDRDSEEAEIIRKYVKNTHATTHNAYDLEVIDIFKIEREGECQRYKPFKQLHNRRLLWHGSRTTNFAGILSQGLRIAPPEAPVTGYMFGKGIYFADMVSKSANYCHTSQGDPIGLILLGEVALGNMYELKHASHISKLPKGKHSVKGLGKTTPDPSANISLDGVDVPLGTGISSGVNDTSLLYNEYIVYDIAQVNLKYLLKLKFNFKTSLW
# [8] = Tmax in Sprague-Dawley rat at 20 mg/kg, po measured upto 24 hrs by LC-MS/MS analysis; type: ADME, organism-based; conditions: in vivo
# [9] = AUC(0 to infinity) in Beagle dog at 0.4 mg/kg, iv measured upto 24 hrs by LC-MS/MS analysis; type: ADME, organism-based, Canis lupus familiaris; set-up: dose 0.4 mg/kg, time < 24 hrs, route iv; conditions: in vivo
# U-87 MG [10] = test: Antitumor activity against human U-87MG cells xenografted in BALB/c mouse assessed as T/C ratio at 25 mg/kg, po administered once daily for 5 days and measured upto 32 days in presence of 30 mg/kg TMZ by MRI scanner; type: functional, U-87MG ATCC; conditions: time <= 32 day
# [11] = MRT(0 to t) in BALB/c mouse at 25 mg/kg, po measured upto 24 hrs by LC-MS/MS analysis; type: ADME, organism-based; conditions: in vivo
# T98G = test: Inhibition of PARP1/2-mediated DNA repair in human T98G cells assessed as increase in […] expression at 1 to 10 uM after 24 hrs in presence of TMZ by Western blot analysis; type: cell-based; conditions: dose 1-10 µM
# [12] = Half life in BALB/c mouse at 25 mg/kg, po measured upto 24 hrs by LC-MS/MS analysis; type: ADME, organism-based; conditions: in vivo
# [13] = target: Poly [ADP-ribose] polymerase 2 (Homo sapiens, UniProt Q9UGN5); test: Inhibition of recombinant human PARP2 using NAD+ as substrate incubated for 1 hr by ELISA
# Chain of Poly [ADP-ribose] polymerase 2 (Q9UGN5 whole entry): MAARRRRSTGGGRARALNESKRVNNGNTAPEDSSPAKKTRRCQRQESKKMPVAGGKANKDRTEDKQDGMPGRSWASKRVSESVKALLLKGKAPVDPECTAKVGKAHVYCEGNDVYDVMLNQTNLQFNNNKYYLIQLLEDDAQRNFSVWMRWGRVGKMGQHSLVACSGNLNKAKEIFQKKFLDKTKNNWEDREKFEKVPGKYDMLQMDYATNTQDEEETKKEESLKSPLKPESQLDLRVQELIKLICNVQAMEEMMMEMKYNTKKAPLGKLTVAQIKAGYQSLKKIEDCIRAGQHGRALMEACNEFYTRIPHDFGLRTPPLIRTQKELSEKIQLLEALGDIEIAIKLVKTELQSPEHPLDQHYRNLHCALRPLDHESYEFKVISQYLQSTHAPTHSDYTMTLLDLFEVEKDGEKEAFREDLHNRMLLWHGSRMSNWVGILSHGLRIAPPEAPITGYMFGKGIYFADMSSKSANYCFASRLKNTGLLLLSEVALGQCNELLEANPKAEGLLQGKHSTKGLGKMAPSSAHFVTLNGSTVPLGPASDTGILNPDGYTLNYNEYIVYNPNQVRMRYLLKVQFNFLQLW
# [14] = Drug concentration in Sprague-Dawley rat brain assessed as brain blood ratio measured upto 24 hrs by LC-MS/MS analysis; type: ADME, organism-based; conditions: read-out: BBR
# [15] = MRT(0 to t) in Beagle dog at 0.4 mg/kg, iv measured upto 24 hrs by LC-MS/MS analysis; type: ADME, organism-based, Canis lupus familiaris; conditions: in vivo
# U-251 [16] = test: Inhibition of PARP1/2-mediated DNA repair in human U-251 cells assessed as reduction in PAR formation at 1 to 10 uM after 24 hrs in presence of TMZ by Western blot analysis; type: cell-based; conditions: dose 1-10 µM
# U-251 [17] = test: Inhibition of PARP1/2-mediated DNA repair in human U-251 cells assessed as increase in […] expression at 1 to 10 uM after 24 hrs in presence of TMZ by Western blot analysis; type: cell-based; conditions: dose 1-10 µM
# Mus musculus [18] = test: Toxicity in BALB/c mouse xenografted with human U-87MG cells assessed as effect on body weight at 50 mg/kg, po administered once daily for 5 days and measured on day 8 in presence of 30 mg/kg TMZ (reference value: 18.5 +/- 1 g); type: organism-based; conditions: in vivo, 192 h, time 8 day
# MX1 [19] = test: Inhibition of PARP1/2 in human MX1 cells assessed as reduction in PAR formation at 1 to 10 uM after 24 hrs by Western blot analysis; type: cell-based; conditions: dose 1-10 µM
# [20] = Cmax in BALB/c mouse at 25 mg/kg, po measured upto 24 hrs by LC-MS/MS analysis; type: ADME, organism-based; set-up: time < 24 hrs, dose 25 mg/kg, route po; conditions: in vivo
# U-87 MG [21] = test: Antitumor activity against human U-87MG cells xenografted in BALB/c mouse assessed as tumor growth inhibition at 25 mg/kg, po administered once daily for 5 days and measured upto 32 days in presence of 30 mg/kg TMZ by MRI scanner; type: functional, U-87MG ATCC; conditions: 768 h, time <= 32 day, read-out: TGI
# [22] = MRT(0 to infinity) in BALB/c mouse at 25 mg/kg, po measured upto 24 hrs by LC-MS/MS analysis; type: ADME, organism-based; conditions: in vivo
# Mus musculus [23] = test: Toxicity in athymic nu/nu mouse xenografted with human MX1 cells assessed as reduction in body weight at 12.5 to 25 mg/kg, po administered once daily for 5 days and measured upto day 17; type: organism-based; conditions: in vivo, 408 h, dose 12.5-25 mg/kg, time < 17 day
# [24] = Half life in Beagle dog at 0.4 mg/kg, iv measured upto 24 hrs by LC-MS/MS analysis; type: ADME, organism-based, Canis lupus familiaris; conditions: in vivo
# MX1 [25] = test: Antitumor activity against human MX1 cells xenografted in athymic nu/nu mouse assessed as tumor growth inhibition at 25 mg/kg, po administered once daily for 5 days and measured on day 17 in presence of 50 mg/kg TMZ; type: functional; conditions: Mus musculus, MX1, 408 h, time 17 day, read-out: TGI
# [26] = Oral bioavailability in Beagle dog at 20 mg/kg measured upto 24 hrs by LC-MS/MS analysis; type: ADME, organism-based, Canis lupus familiaris; conditions: in vivo
# [27] = Acute toxicity in po dosed Crl: […](ICR)-BR mouse after 14 days; type: organism-based; conditions: in vivo, time 14 day
# [28] = AUC(0 to t) in BALB/c mouse at 25 mg/kg, po measured upto 24 hrs by LC-MS/MS analysis; type: ADME, organism-based; set-up: dose 25 mg/kg, time < 24 hrs, route po; conditions: in vivo
# [29] = MRT(0 to t) in Beagle dog at 20 mg/kg, po measured upto 24 hrs by LC-MS/MS analysis; type: ADME, organism-based, Canis lupus familiaris; conditions: in vivo
# Homo sapiens = species on record: Homo sapiens; test: Selectivity index, ratio of IC50 for inhibition of recombinant human PARP2 to IC50 for inhibition of recombinant human PARP1
# [30] = AUC(0 to t) in Beagle dog at 20 mg/kg, po measured upto 24 hrs by LC-MS/MS analysis; type: ADME, organism-based, Canis lupus familiaris; set-up: time < 24 hrs, dose 20 mg/kg, route po; conditions: in vivo
# Daoy = test: Cytotoxicity against human Daoy cells assessed as reduction in cell viability at 5 to 10 uM incubated for 72 hrs in presence of TMZ by MTT assay; type: functional, cell-based; conditions: dose 5-10 µM
# [31] = MRT(0 to infinity) in Sprague-Dawley rat at 20 mg/kg, po measured upto 24 hrs by LC-MS/MS analysis; type: ADME, organism-based; conditions: in vivo
# U-87 MG [32] = test: Antitumor activity against human U-87MG cells xenografted in BALB/c mouse assessed as reduction in tumor volume at 25 mg/kg, po administered once daily for 5 days and measured on day 8 in presence of 30 mg/kg TMZ by MRI scanner (reference value: 202 +/- 120.4 mm3); type: functional, U-87MG ATCC; conditions: time 8 day
smiles,measurement,setting,value
CC[C@@H]1CN(C(=O)c2cc(Cn3c(=O)[nH]c(=O)c4ccccc43)ccc2F)CCN1CC,AUC(0-inf),[1],34600 ng·h/mL
same,half-life,[2],3.78 h
same,Activity,U-87 MG [3],10.3 mm3
same,MRT last at 24 h,[4],1.24 h
same,half-life,[5],0.8 h
same,inhibition in vivo at 50 mg/kg,U-87 MG [6],85.9%
same,IC50,[7],0.51 nM
same,Tmax,[8],4.98 min
same,AUC(0-inf),[9],1430 ng·h/mL
same,T/C,U-87 MG [10],12.1%
same,MRT last at 24 h,[11],0.92 h
same,inhibition,T98G,Active
same,half-life,[12],0.57 h
same,IC50,[13],23.1 nM
same,Kp at 24 h,[14],0.1
same,MRT last at 24 h,[15],1.31 h
same,inhibition,U-251 [16],Active
same,inhibition,U-251 [17],Active
same,Activity,Mus musculus [18],16.3 g
same,inhibition,MX1 [19],Active
same,Cmax,[20],399 ng/mL
same,inhibition in vivo at 25 mg/kg,U-87 MG [21],87.9%
same,MRT inf,[22],1.05 h
same,Activity,Mus musculus [23],Non-Toxic
same,half-life,[24],1.37 h
same,inhibition in vivo at 25 mg/kg,MX1 [25],86.8%
same,bioavailability,[26],48.3%
same,LD50 at 336 h,[27],3500 mg/kg
same,AUC(0-t) at 24 h,[28],555 ng·h/mL
same,MRT last at 24 h,[29],4.58 h
same,Ratio IC50,Homo sapiens,45
same,AUC(0-t) at 24 h,[30],34200 ng·h/mL
same,Activity,Daoy,Active
same,MRT inf,[31],1.37 h
same,Activity,U-87 MG [32],0 mm3
